Values quoted from earlier work as cited in patent US20040170677A1, “Method of drug loading in liposomes by gradient” (priority 2002, published 2004).

Details: patients receiving doses greater than 550 mg per square meter of body area

## COc1cccc2c1C(=O)c1c(O)c3c(c(O)c1C2=O)C[C@@](O)(C(=O)CO)C[C@@H]3O[C@H]1C[C@H](N)[C@H](O)[C@H](C)O1 [doxorubicin, Doxorubicin]
  irreversible cardiomyopathy leading to congestive heart failure, share of patients: 1-10%
